# In the supplement of paper PMC10307832:
# How the values were obtained:
# Assay in all cases: relative viability (nuclei count vs DMSO), 5 days (fraction); higher = more cells survive
# [1] = compound: CC1=NN=C(O1)C2=NN=C(C=C2)N3CCC(CC3)OC4=C(C=CC(=C4)F)Cl + NC(=O)Nc1cc(-c2cccc(F)c2)sc1C(=O)N[C@H]1CCCNC1 [AZD7762] (partner 0.2 µM)
# Outline: (§1)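 Relative viability equals treated-well nuclei counts divided by vehicle-well nuclei counts. Counts came from 4× images of lung cancer cell lines grown in 1536-well plates for 5 days after pin-tool dosing on the day after seeding. Dosing used one drug alone or a fixed anchor-drug dose plus five library-drug doses (not always all listed) in √10 steps, and values are medians of duplicate plates.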
# Tosedostat + Crizotinib = compound: CC(C)C[C@@H](C(=O)N[C@H](C(=O)OC1CCCC1)c1ccccc1)[C@H](O)C(=O)NO [Tosedostat] + C[C@@H](Oc1cc(-c2cnn(C3CCNCC3)c2)cnc1N)c1c(Cl)ccc(F)c1Cl [Crizotinib] (partner 1 µM)
# Outline: as §1
# Tosedostat + Bortezomib = compound: CC(C)C[C@@H](C(=O)N[C@H](C(=O)OC1CCCC1)c1ccccc1)[C@H](O)C(=O)NO [Tosedostat] + CC(C)C[C@H](NC(=O)[C@H](Cc1ccccc1)NC(=O)c1cnccn1)B(O)O [Bortezomib] (partner 0.002 µM)
# Outline: as §1
# [2] = compound: CC1=NN=C(O1)C2=NN=C(C=C2)N3CCC(CC3)OC4=C(C=CC(=C4)F)Cl + CC(C)C[C@H](NC(=O)[C@H](Cc1ccccc1)NC(=O)c1cnccn1)B(O)O [Bortezomib] (partner 0.002 µM)
# Outline: as §1
Cell Line,relative viability ([1]; first compound 0.253 µM),relative viability ([1]; first compound 0.8 µM),relative viability ([1]; first compound 2.53 µM),relative viability ([1]; first compound 8 µM),relative viability (Tosedostat + Crizotinib; first compound 0.02 µM),relative viability (Tosedostat + Crizotinib; first compound 0.06325 µM),relative viability (Tosedostat + Crizotinib; first compound 0.2 µM),relative viability (Tosedostat + Crizotinib; first compound 0.6325 µM),relative viability (Tosedostat + Crizotinib; first compound 2 µM),relative viability (Tosedostat + Bortezomib; first compound 0.02 µM),relative viability (Tosedostat + Bortezomib; first compound 0.06325 µM),relative viability (Tosedostat + Bortezomib; first compound 0.2 µM),relative viability (Tosedostat + Bortezomib; first compound 0.6325 µM),relative viability (Tosedostat + Bortezomib; first compound 2 µM),relative viability ([2]; first compound 2.53 µM),relative viability ([2]; first compound 8 µM),relative viability ([2]; first compound 0.253 µM),relative viability ([2]; first compound 0.8 µM)
NCI-H2342,0.417,0.415,0.479,0.299,–,–,–,–,–,–,–,–,–,–,–,–,–,–
SK-MES-1,–,–,–,–,1.06,0.988,0.983,0.909,0.856,–,–,–,–,–,–,–,–,–
NCI-H1355,0.571,0.385,0.773,0.692,0.997,1.09,1.06,0.976,0.813,1.2,1.14,1.09,0.987,1.07,1.1,0.945,–,–
HCC-366,0.118,0.144,0.225,0.173,0.681,0.532,0.432,0.465,0.325,1.05,1.03,1.03,1.07,1.04,0.436,0.395,0.394,0.438
201T,0.447,0.481,0.531,0.505,1.04,1.05,1.08,1.11,1.09,1.1,1.08,1.14,1.14,1.21,0.592,0.552,0.484,0.569
HCC-827,0.299,0.158,0.213,0.2,0.954,0.933,0.977,0.888,0.756,1.1,1.04,1.07,1,1.01,0.524,0.523,0.514,0.381
PC-14,0.28,0.271,0.374,0.253,0.843,0.805,0.893,0.842,0.92,0.79,0.814,0.896,0.845,0.944,0.681,0.741,0.782,0.655
NCI-H2228,–,–,–,–,0.599,0.438,0.48,0.418,0.445,1.33,0.948,0.827,0.896,0.744,1.27,0.772,0.725,0.804
NCI-H727,0.823,0.597,0.623,0.555,0.983,0.784,0.658,0.557,0.513,0.884,0.771,0.804,0.613,0.613,1,0.696,0.528,0.702
NCI-H1650,–,–,–,–,0.988,0.937,1.07,0.86,1.01,0.207,0.182,0.228,0.197,0.192,0.17,0.197,–,0.202
A-427,0.726,0.526,0.824,0.724,0.972,0.847,0.87,0.916,0.895,1.02,0.916,1.06,1.01,0.879,0.864,0.802,0.867,–
NCI-H650,0.943,0.642,0.985,0.882,0.786,0.662,0.596,0.551,0.375,0.958,0.894,0.562,0.685,0.504,0.716,0.555,0.787,0.546
NCI-H1792,0.535,0.574,0.689,0.472,1,0.991,1.04,0.963,1.03,1.01,0.991,0.934,0.952,1,0.401,0.494,0.405,0.423
NCI-H2009,–,–,–,–,1.07,1.07,1,1.02,0.924,1.3,1.02,0.971,0.926,0.728,0.523,0.493,0.555,0.426
Calu-6,–,–,–,–,0.924,0.755,0.762,0.682,0.415,1.13,0.932,0.943,0.851,0.666,0.832,0.804,0.764,0.807
NCI-H1975,–,–,0.717,0.719,0.939,1.01,1.1,0.773,0.802,0.427,0.454,0.36,0.347,0.304,0.299,0.306,–,0.367
LOU-NH91,–,0.715,0.816,0.717,0.86,0.752,0.767,0.695,0.694,0.5,0.545,0.484,0.564,0.44,0.479,0.436,–,0.517
EMC-BAC-2,1.07,0.929,1.1,1.03,0.847,0.724,0.742,0.703,0.536,1.13,1,1.07,0.944,0.985,1.02,0.95,1.02,0.964
LK-2,0.622,0.366,0.308,0.294,0.218,0.225,0.232,0.249,0.215,–,–,–,–,–,–,–,–,–
NCI-H2405,0.684,0.684,0.627,0.654,0.873,0.772,0.825,0.771,0.791,1.04,0.949,1,0.937,0.883,0.47,0.453,0.468,0.415
